Reference: PMC8453848, “Effect of GLPG1205, a GPR84 Modulator, on CYP2C9, CYP2C19, and CYP1A2 Enzymes: In Vitro and Phase 1 Studies” (Clinical Pharmacology in Drug Development, 2021)

System: CYP1A2
Assay: in vitro
Conditions: human
Description: GLPG1205 was incubated with monolayer cultures of fresh human hepatocytes from 3 individual donors for 24 hours (messenger ribonucleic acid [mRNA] analysis) or 48 hours (enzyme activity) at 6 different concentrations: 0.5, 1, 5, 10, 50, and 100 μM (0.19, 0.38, 1.89, 3.78, 18.9, and 37.8 μg/mL, respectively). All incubations contained 0.4% dimethylsulfoxide (DMSO). Incubation with 50 μM omeprazole containing 0.1% DMSO was used as a positive control. Incubations with 0.1% and 0.4% DMSO alone were used as negative controls.
Following a 48‐hour incubation period, an enzymatic assay assessed phenacetin O‐deethylase (a CYP1A2 substrate) activity by measuring the CYP1A2‐dependent metabolite acetaminophen in supernatants. Acetaminophen was quantified using liquid chromatography coupled with tandem mass spectrometry (LC‐MS/MS).
A concentration‐dependent increase in mRNA of <100% was considered a negative finding when the increase in mRNA was less than 20% of the response of the positive control.
Incubation for CYP1A2 Induction Experiment The incubations for enzyme activity measurements were performed with cell monolayers in 96-well plates and the incubations for mRNA measurements were performed with cell monolayers in 24-well plates.^3
GLPG1205 was incubated with monolayer culture of human fresh hepatocytes from 3 individual donors for 24 or 48 hours, for messenger ribonucleic acid (mRNA) analysis and enzyme activity, respectively, at 6 different concentrations (n = 3): 0.1, 0.5, 1, 5, 10 and 50 µM (0.038, 0.19, 0.38, 1.89, 3.78 and 18.9 µg/mL, respectively). […] Incubation with 50 µM omeprazole containing 0.1% DMSO was used as a positive control. Incubations with 0.1% and 0.4% DMSO alone were used as negative controls. The CMI was William’s E medium with hepatocytes induction additives. Cells were cultured at 37°C in a humidified carbon dioxide/air (5%/95%) atmosphere. Culture media were renewed daily in all wells.
Enzymatic Assay At the end of the 48-hour incubation period, CYP1A2 enzyme activity was measured in intact cells by incubating with phenacetin, a probe substrate. Cells were first washed with minimum essential medium (MEM) devoid of phenol red to remove remaining test compounds or reference inducers and were then incubated for 2 hours at 37°C with 200 µM phenacetin in MEM devoid of phenol red and containing 0.1% DMSO. Assessment of phenacetin O-deethylase activity in supernatants was carried out by measuring the CYP1A2-dependent metabolite acetaminophen. Cell protein content was also determined; protein content was measured according to the bicinchoninic acid method^4 and calculated using a bovine serum albumin standard curve.
A 2-fold dilution of the specimens in a solution of 1 µM D4-acetaminophen in water with 0.1% formic acid was performed and 20 µL were injected into the LC-MS/MS system. The mobile phase consisted of ammonium acetate 5 mM in water (A) and formic acid 0.3% in acetonitrile/methanol, 50/50, v/v. The following gradient was applied with a 1.5 mL/min flow rate and an oven temperature of 40°C: 98% A from 0 minutes; 70% A from 2.5 minutes; 1% A from 2.6 minutes; 1% A from 3.2 minutes; 98% A from 3.25 minutes; 98% A from 4.5 minutes. In this condition, the retention time of acetaminophen was approximately 2.33 minutes. Controls were performed by injecting calibration standards at the beginning and end of each run. […]

[1] = Phenacetin O-deethylase activity, fold induction

O=c1nc(OC[C@@H]2COCCO2)cc2n1CCc1cc(C#CC3CC3)ccc1-2 [GLPG1205, 9‐cyclopropylethynyl‐2‐[(S)‐1‐(1,4)dioxan‐2‐ylmethoxy]‐6,7‐dihydropyrimido[6,1‐a]isoquinolin‐4‐one]
Phenacetin O-deethylase activity, fold induction (48 h, 50 µM): 0.367 ± 0.021 fold
fold induction at 48 h, 0.1 µM [1]: 1.64 ± 0.256
fold induction at 48 h, 50 µM [1]: 0.335 ± 0.033
increases in CYP1A2 activity compared with the negative control (0.4% DMSO) (hepatocytes, 48 h): ≤ 2 fold
increases in CYP1A2 activity, % of the positive control (omeprazole) (hepatocytes, 48 h): lower than 40%
